Literature values as cited in US8653094B2, “Solid forms of (S)-ethyl 2-amino-3-(4-(2-amino-6-((R)-1-(4-chloro-2-(3-methyl-1H-pyrazol-1-yl)phenyl)-2,2,2-trifluoroethoxy)-pyrimidin-4-yl)phenyl)propanoate and methods of their use” (Lexicon Pharmaceuticals, Inc., priority 2007, dated 2014).

What was measured:
tryptophan hydroxylase = details: statement in words; see U.S. patent application No. 60/874,596
[1] = tested on: peripheral serotonin levels; details: when administered to animals; see U.S. patent application No. 60/874,596

In the case of `CCOC(=O)[C@@H](N)Cc1ccc(-c2cc(O[C@H](c3ccc(Cl)cc3-n3ccc(C)n3)C(F)(F)F)nc(N)n2)cc1` [(S)-ethyl 2-amino-3-(4-(2-amino-6-((R)-1-(4-chloro-2-(3-methyl-1H-pyrazol-1-yl)phenyl)-2,2,2-trifluoroethoxy)pyrimidin-4-yl)phenyl)propanoate], the tryptophan hydroxylase inhibition (tryptophan hydroxylase) is listed as “inhibitor of tryptophan hydroxylase” and the “effect on peripheral serotonin levels” value [1] is listed as “decreases peripheral serotonin levels”.
